In patent publication US20100168420A1, “Taxol Derivatives With Antitumor Activity” (priority 2007, published 2010):
Marks after values point to notes of the source that are not given here.

Columns and labels:
[1] = test system: human A549 NSCLC tumors; assay: Therapeutic effects of SHR-110008 and Taxotere against xenografts of human A549 NSCLC tumors in nude mice (Test Example 1); settings: for RTV X ± SD / T/C (%) / T/C (%) (weighing method) / Weight of tumors (g) x ± SD: 14th day; for T/C (%): from RTV; for T/C (%) (weighing method): from weight of tumors; for Weight of tumors (g) x ± SD: weighing method; for TV (X ± SD, mm^3) d0 / Body weight (g) d0: d0: time of the first dosage; for TV (X ± SD, mm^3) dn / Body weight (g) dn: dn: 14th day after the first dosage
Experimental: Numbers of animals: 9 mice in control group, 5 mice in medication administration team.
Animals were adapted in animal house for 1 week and were hypodermic inoculated human A549 NSCLC tumors. After tumors grew to 100-300 mm^3, mice were randomly divided into teams of SHR-110008 and Taxotere(d0). The doses of SHR-110008 were 10 and 16 mg/kg, and the doses of Taxotere were 12 and 19 mg/kg, separately. The route of administration is intravenous injection. SHR-110008(10 mg/kg) and Taxotere (12 mg/kg) were administrated on d0, d4, d8, a total of three times. SHR-110008(16 mg/kg) and Taxotere (19 mg/kg) were administrated on d0, d7, a total of two times. The volume of tumors and weights of the mice were measured for 2-3 times per week. The calculation formula of the volume of tumor (V) is: V=1/2×a×b^2, a: length of tumor, b: width of tumor.

[2] = test system: human A549 NSCLC tumors; assay: Therapeutic effects of SHR1021-47 against xenografts of human A549 NSCLC tumors in nude mice (Test Example 2); format: in vivo, BALB/cA-nude mice; settings: 12 mg/kg iv, d0, d7
Experimental: Animal species: BALB/cA-nude mice.
Numbers of animals: 12 mice in control group, 6 mice in medication administration team.
Cell culture: Human A549 NSCLC tumor cells were cultured in vitro remaining on logarithmic growth phase.
Transplantation: Take the prepared cells to inoculate subcutaneously to the nude mice.
Inoculation: Take the tumor lump to inoculate in one side of oxter on the condition of asepsis.
Grouping and dose design: Measure the diameter of transplantation tumor by sliding caliper. After tumors grew to 100-250 mm^3, mice were randomly divided into groups of Shr1021-47 (8 mg/kg, 12 mg/kg, 16 mg/kg) and Taxotere (12 mg/kg).
Administration route and time: iv administration. Shr1021-47 and Taxotere were administrated on d0, d7, 2 times in all. Measure the volume of tumor and weigh the mice 2-3 times per week.
Calculate the relative tumor volume (RTV) according to the measurements. The formula is: RTVI=Vt/V0. V0 refers to the volume of tumor on d0; Vt refers to the volume of tumor on every measurement. The index of antitumor activity is T/C(%). The formula is: T/C(%)=TRTV/CRTV×100, TRTV: RTV of treatment group, CRTV: RTV of control group.

[3] = under the suitable dose schedule, conclusion in words
[4] = dn: 14th day after the first dosage

CC(=O)O[C@@]12CO[C@@H]1C[C@H](O)[C@@]1(C)[C@@H]3OC(CN4C[C@@H]5C[C@H]4CO5)O[C@@H]3C3=C(C)[C@@H](OC(=O)[C@H](O)[C@@H](NC(=O)OC(C)(C)C)c4ccccc4)C[C@@](O)([C@@H](OC(=O)c4ccccc4)[C@H]21)C3(C)C (stereo partly drawn) [SHR-110008]
RTV X ± SD ([1]; 10 mg/kg i.v., d0, 4, 8): 10.81 ± 1.79 | T/C (%) ([1]; 10 mg/kg i.v., d0, 4, 8): 48.8* % | T/C (%) (weighing method) ([1]; 10 mg/kg i.v., d0, 4, 8): 38.6* % | Weight of tumors (g) x ± SD ([1]; 10 mg/kg i.v., d0, 4, 8): 1.59 ± 0.57 g | TV (X ± SD, mm^3) d0 ([1]; 10 mg/kg i.v., d0, 4, 8): 129 ± 20 mm^3 | TV (X ± SD, mm^3) dn ([1]; 10 mg/kg i.v., d0, 4, 8): 1383 ± 243 mm^3 | RTV X ± SD ([1]; 16 mg/kg i.v., d0, 7): 4.41 ± 2.43 | T/C (%) ([1]; 16 mg/kg i.v., d0, 7): 19.9* % | T/C (%) (weighing method) ([1]; 16 mg/kg i.v., d0, 7): 74.1* % | Weight of tumors (g) x ± SD ([1]; 16 mg/kg i.v., d0, 7): 0.67 ± 0.23 g | TV (X ± SD, mm^3) d0 ([1]; 16 mg/kg i.v., d0, 7): 143 ± 38 mm^3 | TV (X ± SD, mm^3) dn ([1]; 16 mg/kg i.v., d0, 7): 612 ± 340 mm^3 | therapeutic effect compared with Taxotere [1, 3]: better than that of Taxotere | toxicity compared with Taxotere [1, 3]: better than that of Taxotere

CC(=O)O[C@@]12CO[C@@H]1C[C@H](O)[C@@]1(C)C(=O)[C@H](O)C3=C(C)[C@@H](OC(=O)[C@H](O)[C@@H](NC(=O)OC(C)(C)C)c4ccccc4)C[C@@](O)([C@@H](OC(=O)c4ccccc4)[C@H]21)C3(C)C [Taxotere]
RTV X ± SD ([2]; 14th day): 11.2 ± 6.0 | T/C (%) ([2]; 14th day, TRTV/CRTV×100): 78.3% | Body weight (g) d0 ([2]; d0: time of the first dosage): 20.7 g | TV (X ± SD, mm^3) d0 ([2]; d0: time of the first dosage): 156 ± 20 mm^3 | Body weight (g) dn [2, 4]: 15.6 g | TV (X ± SD, mm^3) dn [2, 4]: 1679 ± 749 mm^3 | RTV X ± SD ([1]; 12 mg/kg i.v., d0, 4, 8): 8.65 ± 5.83 | T/C (%) ([1]; 12 mg/kg i.v., d0, 4, 8): 39.1* % | T/C (%) (weighing method) ([1]; 12 mg/kg i.v., d0, 4, 8): 51.7* % | Weight of tumors (g) x ± SD ([1]; 12 mg/kg i.v., d0, 4, 8): 1.25 ± 0.71 g | Body weight (g) d0 ([1]; 12 mg/kg i.v., d0, 4, 8): 17.6 g | TV (X ± SD, mm^3) d0 ([1]; 12 mg/kg i.v., d0, 4, 8): 140 ± 24 mm^3 | Body weight (g) dn ([1]; 12 mg/kg i.v., d0, 4, 8): 14.1 g | TV (X ± SD, mm^3) dn ([1]; 12 mg/kg i.v., d0, 4, 8): 1149 ± 627 mm^3 | RTV X ± SD ([1]; 19 mg/kg i.v., d0, 7): 7.13 ± 6.00 | T/C (%) ([1]; 19 mg/kg i.v., d0, 7): 32.2* % | T/C (%) (weighing method) ([1]; 19 mg/kg i.v., d0, 7): 57.9* % | Weight of tumors (g) x ± SD ([1]; 19 mg/kg i.v., d0, 7): 1.09 ± 0.73 g | Body weight (g) d0 ([1]; 19 mg/kg i.v., d0, 7): 17.7 g | TV (X ± SD, mm^3) d0 ([1]; 19 mg/kg i.v., d0, 7): 134 ± 19 mm^3 | Body weight (g) dn ([1]; 19 mg/kg i.v., d0, 7): 13.0 g | TV (X ± SD, mm^3) dn ([1]; 19 mg/kg i.v., d0, 7): 902 ± 736 mm^3
